In patent publication US20220259302A1, “METHODS AND COMPOSITIONS FOR THE IMPROVEMENT OF LYSOSOMAL FUNCTION AND TREATMENT OF NEURODEGENERATIVE DISEASE” (VANDERBILT UNIVERSITY, priority 2017, published 2022):
“Also recorded” adds a separate entry of the source.

Experiments:
[1] = test system: p62-positive aggregates in hippocampus; test: p62-positive aggregates in hippocampus of aging mice after long-term treatment in drinking water; assay type: in vivo, mouse
Protocol: Female C57BL6 mice received apocynin (50 mg/kg) or C3 (1 mg/kg/day) in their water from 12-17 mos of age, then perfused. Fixed brain were sectioned, and immunostained for p62. Confocal images were analyzed for 6 hippocampi/three sections per mouse, 4 mice per group. To quantify the p62-containing aggregates, aggregates were individually circled in the depicted region by a blinded investigator, and aggregate areas measured using ImageJ. Areas covered by aggregates, and number of clusters, are shown. Mean±SEM, *p<0.05, ***p<0.001, Mann-Whitney Rank Sum test. Animal studies were approved by the Animal Care Program at the University of California, San Diego, and Vanderbilt University Medical Center and are in accordance with the PHS Guide for the Care and Use of Laboratory Animals, USDA Regulations, and the AVMA Panel on Euthanasia. Young (3 to 5 month) and old (17 to 27 month) C57BL/6 mice, Tam-Thy1-YFP-Crc, tdTomato or 24 month old GFAP/GFP transgenic mice (JAX, 010835) were used for experiments. Lines which have the Tam-Thy1-YFP-Cre express both the Cre recombinase and YFP under control of the Thy1 promoter, which drives expression in a majority of hippocampal and cortical excitatory neurons, but not inhibitory neurons. Tam-Thy1-YFP-Cre:Stat3flox/flox (TF) mice have been generated, and have also been crossed with the Rosa26-tdTomato reporter mouse line to produce Tam-Thy1-YFP-Cre:Stat3flox/flox:tdTom (TFTD) mice. These reporter mice will express tdTom fluorescence in response to tamoxifen. […] The sections were kept in 30% sucrose, 30% ethylene glycol, and 1% PVP-40 at −20° C. until they were ready to be processed for immunostaining. […] With HRP-conjugated secondary antibodies, fluorescence was developed with fluorescein or cyanine 3 TSA amplification systems. […] Images were then analyzed and processed using Metamorph or Fiji software. To quantify the clusters of p62-containing aggregates, images were taken for 6 hippocampal regions from three sections per mouse, with 4 mice for each group. […]

[2] = test system: lamp1-positive lysosomes in neurons; test: intracellular lysosome size in neurons of aged mice (lamp1 and CatD immunostaining); assay type: in vivo, mouse; settings: aged mice treated with apocynin compared to water
From the text: Brain sections from 5 month and 20 month old female mice were immunostained with antibodies against lamp1 and parvalbumin (PV), chosen to allow lysosomes in individual neurons to be analyzed. In old versus young animals, lamp1-labeled lysosomes are larger in both PV neurons as well as surrounding pyramidal neurons. Lysosomes in PV neurons were quantified in 1 μm thick optical sections with ImageJ using Analyze Particles function; n=8 young, n=7 old. *p<0.001, Mann-Whitney Rank Sum test.
Mice were treated with apocynin in drinking water (initial dose 5 mg/kg and then ramping up to 100 mg/kg) beginning at 12 months old for 5 months. […]
An antigen retrieval method was performed on the sections for most antigens by heating in 10 mM citrate buffer (pH 6.0) for 10 minutes at 90° C. […] With HRP-conjugated secondary antibodies, fluorescence was developed with fluorescein or cyanine 3 TSA amplification systems. […]
Images were captured using Zeiss LSM 510 or LSM 810 multiphoton laser confocal microscopes. […] Images were then analyzed and processed using Metamorph or Fiji software. To quantify the clusters of p62-containing aggregates, images were taken for 6 hippocampal regions from three sections per mouse, with 4 mice for each group. Hippocampal regions were divided into different subregions, and p62 clusters were counted. […]

[3] = target: lysosomal v-ATPase (Homo sapiens, UniProt P27449); settings: direct inhibition of lysosome acidification; cited from earlier work
[4] = test system: Nox2, Nox4 and p22phox; test: Nox induction in brain of mice injected with IL-6 (qRT-PCR, Western blot, immunostaining); assay type: in vivo, mouse; settings: 4 month and 24 month-old C57Bl/6 mice, IL-6 5 μg/kg on two consecutive days
Protocol: These are the first data showing that inhibiting Nox activity can improve lysosome function in brain in vivo. […] Based on the observation herein that IL-6 is responsible for Nox2 induction in aging brain, and thus here, it is determined whether IL-6 mediates lysosome dysfunction. […] have a targeted deletion of Stat3 in neurons, and pharmacological inhibition of Nox-derived superoxide production can be used to test each of these possibilities. […] This increase occurred not only in microglia, but cortical and hippocampal neurons, and in synaptosomes. To confirm anti-Nox2 Ab specificity, slices and tissue from gp91phox−/− (Nox2−/−) mice were always included as controls.

[5] = test system: mouse cortical cultures; test: lysosome degradation of proteins in mouse cortical cultures exposed to IL-6; assay type: cell-based
Protocol: Also, IL-6 can induce expression of inflammatory mediators, including TNFα, IL-6, IL-1β, Nox2 and Nox4, through both canonical pTyr-Stat3 transcription, and through noncanonical Stat3 NFκB transcription. Here, primary mouse cultures can be prepared on coverslip dishes as described and treated with IL-6 (10 ng/ml and 100 ng/ml) or a vehicle controls (media), daily for 4 days. Bafilomycin (100 nM) can be included in some dishes as a positive control for direct v-ATPase inhibition. Cultures can be fixed with 4% paraformaldehyde (PFA), and immunostained. Based on the data, accumulation of large lamp1 and p62-positive lysosomes in IL-6 and BAF treated cells can be observed. To then assess the role of redox effects on the v-ATPase, cultures can be co-treated with one of three antioxidants, TEMPOL (general radical scavenging), the C3 compound (catalytic superoxide dismutase, to reduce Nox-derived superoxide, regardless of isoform(s) which are contributing), and N-acetyl cysteine (to increase glutathione levels). When the v-ATPase is inhibited through its redox site, antioxidant treatment can prevent accumulation of undigested contents (p62, lamp1), and prevent enlargement of lysosomes. […]

Sequence of lysosomal v-ATPase (P27449 whole entry): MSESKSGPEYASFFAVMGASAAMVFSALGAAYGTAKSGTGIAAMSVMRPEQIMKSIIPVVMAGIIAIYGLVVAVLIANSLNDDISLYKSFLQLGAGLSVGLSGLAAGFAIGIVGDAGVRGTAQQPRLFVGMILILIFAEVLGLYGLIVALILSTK
Sequence of lysosomal v-ATPase (P38606 whole entry partner): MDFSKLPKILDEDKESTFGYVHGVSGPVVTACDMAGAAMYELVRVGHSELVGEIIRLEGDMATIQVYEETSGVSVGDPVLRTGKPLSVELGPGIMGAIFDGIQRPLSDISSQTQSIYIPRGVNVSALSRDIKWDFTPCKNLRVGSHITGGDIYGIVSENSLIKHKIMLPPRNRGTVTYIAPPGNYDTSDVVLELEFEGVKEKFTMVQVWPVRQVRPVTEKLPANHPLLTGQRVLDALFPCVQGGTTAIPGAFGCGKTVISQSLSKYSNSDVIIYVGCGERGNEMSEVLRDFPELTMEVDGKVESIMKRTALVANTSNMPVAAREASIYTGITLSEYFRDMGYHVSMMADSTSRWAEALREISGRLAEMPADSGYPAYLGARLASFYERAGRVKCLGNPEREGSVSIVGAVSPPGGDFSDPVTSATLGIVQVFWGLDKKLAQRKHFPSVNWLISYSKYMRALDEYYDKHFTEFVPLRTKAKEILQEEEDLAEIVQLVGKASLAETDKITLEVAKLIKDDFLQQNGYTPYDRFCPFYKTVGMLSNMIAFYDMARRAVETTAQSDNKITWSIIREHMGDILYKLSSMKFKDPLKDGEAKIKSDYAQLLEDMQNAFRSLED

For COc1cc(C(C)=O)ccc1O [apocynin], the cargo clearance ([1]; apocynin 100 mg/kg/day, as in FIG. 5) was “improved cargo clearance”, the “accumulation of p62 aggregates (number and size of p62-positive aggregates) in hippocampus” value ([1]; female C57BL6 mice, in drinking water from 12-17 mos of age, apocynin 50 mg/kg/day, C3 1 mg/kg/day) was “reduction of both the number, and size of p62-positive aggregates; also recorded: reduces hippocampal aggregates; also recorded: lessons the accumulation of p62 aggregates” and the “undegraded lysosome material throughout brain” value ([1]; mice treated with apocynin (FIG. 5)) was “robust and highly significant reduction in undegraded lysosome material throughout brain”. For the same molecule, the “size of lysosomes in neurons (lamp1 and CatD immunostaining)” value [2] was “significant normalization (reduction) of intracellular lysosome size; also recorded: significantly reduced the size of lysosomes”.

For CO/C1=C\C(C)=C\[C@@H](C)[C@@H](O)[C@@H](C)C/C(C)=C/C=C/[C@H](OC)[C@@H]([C@@H](C)[C@@H](O)[C@H](C)[C@@]2(O)C[C@@H](O)[C@H](C)[C@@H](C(C)C)O2)OC1=O [bafilomycin], the lysosome size [3] is given as “rapidly increases lysosome size within hours”.

For “IL-6: inflammatory cytokine interleukin-6”, the “induction of Nox2, Nox4 and p22phox in brain” value [4] was “induction of Nox2, Nox4 and p22phox” and the “lysosome degradation of proteins, including p62” value [5] was “impairs lysosome degradation of proteins”.
